In patent publication US20260256792A1, “TREATMENT OF CHRONIC SPONTANEOUS URTICARIA BY ADMINISTERING (R)-2-[3-[4-AMINO-3-(2-FLUORO-4-PHENOXY-PHENYL)PYRAZOLO[3,4-D]PYRIMIDIN-1-YL]PIPERIDINE-1-CARBONYL]-4-METHYL-4-[4-(OXETAN-3-YL)PIPERAZIN-1-YL]PENT-2-ENENITRILE” (priority 2023, published 2026):

System: moderate-to-severe chronic spontaneous urticaria (CSU)
Assay: Phase 2 CSU study: hives severity score over 7 days (HSS7)
Format: in vivo, human
Parameters: key to HSS7 Change from baseline, Median / HSS7, Median / HSS7, Max / HSS7 Change from baseline, Q1 / HSS7 Change from baseline, Q3 / HSS7 Change from baseline, Max: 7-day sum of daily hive scores, each 0 = none to 3 = >50 hives
Conditions: 400 mg BID
Source text: The study comprises a 12 week, randomized, double-blind, placebo-controlled, multi-center, dose-ranging efficacy and safety phase, followed by a 40 week open label extension (OLE) phase (see FIG. 1).
The study consists of three phases and an optional OLE phase.
The UAS is a validated PRO measure. The daily UAS is the sum of the daily Hive Severity Score (HSS, ranging from 0=None to 3=more than 50 hives) and the daily Itch Severity Score (ISS, ranging from 0=None to 3=intense), the 2 key urticaria signs and symptoms which are wheals and itch. The daily UAS scores range from 0 to 6 point/day. Daily UAS scores are summed over 7-day period to create the UAS7, ranging from 0 to 42, and are composed of the HSS7 and ISS7 components. […] Patients were to complete the UAS using the e-diary. The e-diary was to be used once daily on the same time of each day recording of participant's answers to the urticaria activity score over 7 days (UAS7) questionnaire. For participants who entered the OLE phase, their answers to the UAS7 questionnaire were also to be collected from Week 20 to Week24 and from Week 48 to Week 52.
The following secondary endpoints were to be analyzed using the same approach as for the primary endpoint: • Change from baseline in UAS7 at Week 4 • Change from baseline in UAS7 at Week 12 (for US and US reference countries) • Change from baseline in ISS7 at Week 12 (except US and US reference countries) • Change from baseline in HSS7 at Week 12

[1] = Omalizumab-Naïve Population, last block under Week 12, double-blind period, WOCF imputation
[2] = Week 1, Omalizumab-Naïve Population
[3] = Week 2, Omalizumab-Naïve Population
[4] = Week 3, Omalizumab-Naïve Population
[5] = Week 4, Omalizumab-Naïve Population
[6] = Week 5, Omalizumab-Naïve Population
[7] = Week 6, Omalizumab-Naïve Population
[8] = Week 7, Omalizumab-Naïve Population
[9] = Week 8, Omalizumab-Naïve Population

In the case of `CC(C)(C=C(C#N)C(=O)N1CCC[C@@H](n2nc(-c3ccc(Oc4ccccc4)cc3F)c3c(N)ncnc32)C1)N1CCN(C2COC2)CC1` [rilzabrutinib, (R)-2-[3-[4-amino-3-(2-fluoro-4-phenoxy-phenyl)pyrazolo[3,4-d]pyrimidin-1-yl]piperidine-1-carbonyl]-4-methyl-4-[4-(oxetan-3-yl)piperazin-1-yl]pent-2-enenitrile], the “HSS7, Max” value [1] is reported as 21.0, the “HSS7, Min” value [1] is reported as 0.0 and the “HSS7 Change from baseline, Max” value [1] is reported as 0.0. The “HSS7 Change from baseline, Mean (SD)” value [1] was −7.80 (6.87), the “HSS7 Change from baseline, Median” value [1] was −5.00 and the “HSS7 Change from baseline, Min” value [1] was −16.0. For the same compound, the “HSS7 Change from baseline, Q1” value [1] was −14.00, the “HSS7 Change from baseline, Q3” value [1] was −4.00 and the “HSS7 Percent change from baseline, Max” value [1] was 0.0%. The “HSS7 Percent change from baseline, Mean (SD)” value [1] was −53.67 (44.85) percent, the “HSS7 Percent change from baseline, Median” value [1] was −41.67% and the “HSS7 Percent change from baseline, Min” value [1] was −100.0%. The “HSS7 Percent change from baseline, Q1” value [1] was −100.00%, the “HSS7 Percent change from baseline, Q3” value [1] was −26.67% and the “HSS7 % Change difference for rilzabrutinib vs.placebo LS Mean (95% CI)” value (“HSS7 % Change difference … (95% CI)” below) (Week 1, ITT Population) was −25.04 %. For the same compound, the “HSS7 % Change from baseline LS Mean (SE)” value (Week 1, ITT Population) was −33.74 (5.55) %, the “HSS7 Change difference for rilzabrutinib vs.placebo LS Mean (95% CI)” value (“HSS7 Change difference … (95% CI)” for short) (Week 1, ITT Population) was −2.95 (−5.36, −0.55) and the “HSS7 Change from baseline LS Mean (SE)” value (Week 1, ITT Population) was −4.79 (0.75). For the same compound, the “HSS7 Postbaseline Mean (SD)” value (Week 1, ITT Population) was 9.32 (5.77), the “HSS7 % Change difference … (95% CI)” value [2] was −27.07 % and the “HSS7 % Change from baseline LS Mean (SE)” value [2] was −34.51 (5.97) %. The “HSS7 Change difference … (95% CI)” value [2] was −3.10 (−5.66, −0.53), the “HSS7 Change from baseline LS Mean (SE)” value [2] was −4.73 (0.80) and the “HSS7 Postbaseline Mean (SD)” value [2] was 9.26 (5.76). The “HSS7 Postbaseline Mean (SD)” value (Week 1, Omalizumab-Naïve Population with Outlier Removed from Analysis) was 9.26 (5.76), the “HSS7 % Change difference … (95% CI)” value (Week 2, ITT Population) was −18.39 % and the “HSS7 % Change from baseline LS Mean (SE)” value (Week 2, ITT Population) was −34.94 (5.70) %. The “HSS7 Change difference … (95% CI)” value (Week 2, ITT Population) was −2.23 (−4.31, −0.14), the “HSS7 Change from baseline LS Mean (SE)” value (Week 2, ITT Population) was −5.15 (0.79) and the “HSS7 Postbaseline Mean (SD)” value (Week 2, ITT Population) was 9.11 (5.66). The “HSS7 % Change difference … (95% CI)” value [3] was −19.53 %, the “HSS7 % Change from baseline LS Mean (SE)” value [3] was −34.80 (6.07) % and the “HSS7 Postbaseline Mean (SD)” value [3] was 9.27 (5.49). The “HSS7 Postbaseline Mean (SD)” value (Week 2, Omalizumab-Naïve Population with Outlier Removed from Analysis) was 9.27 (5.49), the “HSS7 % Change difference … (95% CI)” value (Week 3, ITT Population) was −19.09 % and the “HSS7 % Change from baseline LS Mean (SE)” value (Week 3, ITT Population) was −38.24 (5.88) %. For the same compound, the “HSS7 Change difference … (95% CI)” value (Week 3, ITT Population) was −2.14 (−4.31, 0.04), the “HSS7 Change from baseline LS Mean (SE)” value (Week 3, ITT Population) was −5.64 (0.82) and the “HSS7 Postbaseline Mean (SD)” value (Week 3, ITT Population) was 8.42 (6.15). The “HSS7 % Change difference … (95% CI)” value [4] was −20.68 %, the “HSS7 % Change from baseline LS Mean (SE)” value [4] was −38.38 (6.33) % and the “HSS7 Postbaseline Mean (SD)” value [4] was 8.55 (6.09). For the same compound, the “HSS7 Postbaseline Mean (SD)” value (Week 3, Omalizumab-Naïve Population with Outlier Removed from Analysis) was 8.55 (6.09), the “HSS7 % Change difference … (95% CI)” value (Week 4, ITT population) was −24.40 % and the “HSS7 % Change from baseline LS Mean (SE)” value (Week 4, ITT population) was −43.10 (6.02) %. For the same compound, the “HSS7 Change difference … (95% CI)” value (Week 4, ITT population) was −2.71 (−4.92, −0.50), the “HSS7 Change from baseline LS Mean (SE)” value (Week 4, ITT population) was −6.16 (0.83) and the “HSS7 Postbaseline Mean (SD)” value (Week 4, ITT population) was 7.50 (6.18). The “HSS7 % Change difference … (95% CI)” value [5] was −27.23 %, the “HSS7 % Change from baseline LS Mean (SE)” value [5] was −43.11 (6.45) % and the “HSS7 Postbaseline Mean (SD)” value [5] was 7.60 (6.00). For the same compound, the “HSS7 Postbaseline Mean (SD)” value (Week 4, Omalizumab-Naïve Population with Outlier Removed from Analysis) was 7.60 (6.00), the “HSS7 % Change difference … (95% CI)” value (Week 5, ITT Population) was −12.25 % and the “HSS7 % Change from baseline LS Mean (SE)” value (Week 5, ITT Population) was −41.40 (5.88) %. For the same compound, the “HSS7 Change difference … (95% CI)” value (Week 5, ITT Population) was −1.29 (−3.57, 0.99), the “HSS7 Change from baseline LS Mean (SE)” value (Week 5, ITT Population) was −5.93 (0.86) and the “HSS7 Postbaseline Mean (SD)” value (Week 5, ITT Population) was 7.91 (6.94). The “HSS7 % Change difference … (95% CI)” value [6] was −9.42 (−26.13, 7.29) %, the “HSS7 % Change from baseline LS Mean (SE)” value [6] was −39.98 (6.23) % and the “HSS7 Postbaseline Mean (SD)” value [6] was 8.34 (6.75). For the same compound, the “HSS7 Postbaseline Mean (SD)” value (Week 5, Omalizumab-Naïve Population with Outlier Removed from Analysis) was 8.34 (6.75), the “HSS7 % Change difference … (95% CI)” value (Week 6, ITT Population) was −15.72 % and the “HSS7 % Change from baseline LS Mean (SE)” value (Week 6, ITT Population) was −39.79 (6.64) %. The “HSS7 Change difference … (95% CI)” value (Week 6, ITT Population) was −1.64 (−4.07, 0.79), the “HSS7 Change from baseline LS Mean (SE)” value (Week 6, ITT Population) was −5.90 (0.92) and the “HSS7 Postbaseline Mean (SD)” value (Week 6, ITT Population) was 7.89 (6.65). The “HSS7 % Change difference … (95% CI)” value [7] was −15.99 %, the “HSS7 % Change from baseline LS Mean (SE)” value [7] was −40.02 (7.13) % and the “HSS7 Postbaseline Mean (SD)” value [7] was 8.17 (6.62). For the same compound, the “HSS7 Postbaseline Mean (SD)” value (Week 6, Omalizumab-Naïve Population with Outlier Removed from Analysis) was 8.17 (6.62), the “HSS7 % Change difference … (95% CI)” value (Week 7, ITT Population) was −22.31 % and the “HSS7 % Change from baseline LS Mean (SE)” value (Week 7, ITT Population) was −46.27 (6.01) %. The “HSS7 Change difference … (95% CI)” value (Week 7, ITT Population) was −2.71 (−4.98, −0.44), the “HSS7 Change from baseline LS Mean (SE)” value (Week 7, ITT Population) was −6.79 (0.86) and the “HSS7 Postbaseline Mean (SD)” value (Week 7, ITT Population) was 7.01 (6.25). The “HSS7 % Change difference … (95% CI)” value [8] was −19.88 %, the “HSS7 % Change from baseline LS Mean (SE)” value [8] was −45.57 (6.48) % and the “HSS7 Postbaseline Mean (SD)” value [8] was 7.34 (6.12). For the same compound, the “HSS7 Postbaseline Mean (SD)” value (Week 7, Omalizumab-Naïve Population with Outlier Removed from Analysis) was 7.34 (6.12), the “HSS7 % Change difference … (95% CI)” value (Week 8, ITT population) was −23.44 % and the “HSS7 % Change from baseline LS Mean (SE)” value (Week 8, ITT population) was −52.52 (6.33) %. For the same compound, the “HSS7 Change difference … (95% CI)” value (Week 8, ITT population) was −2.74 (−5.15, −0.33), the “HSS7 Change from baseline LS Mean (SE)” value (Week 8, ITT population) was −7.49 (0.91) and the “HSS7 Postbaseline Mean (SD)” value (Week 8, ITT population) was 6.41 (6.73). The “HSS7 % Change difference … (95% CI)” value [9] was −25.21 %, the “HSS7 % Change from baseline LS Mean (SE)” value [9] was −53.21 (6.86) % and the “HSS7 Postbaseline Mean (SD)” value [9] was 6.66 (6.70). For the same compound, the “HSS7 Postbaseline Mean (SD)” value (Week 8, Omalizumab-Naïve Population with Outlier Removed from Analysis) was 6.66 (6.70), the “HSS7 % Change difference … (95% CI)” value (Week 9, ITT Population) was −27.61 % and the “HSS7 % Change from baseline LS Mean (SE)” value (Week 9, ITT Population) was −51.53 (6.66) %. For the same compound, the “HSS7 Change difference … (95% CI)” value (Week 9, ITT Population) was −3.04 (−5.57, −0.51), the “HSS7 Change from baseline LS Mean (SE)” value (Week 9, ITT Population) was −7.16 (0.96) and the “HSS7 Postbaseline Mean (SD)” value (Week 9, ITT Population) was 6.69 (7.49). For the same compound, the “HSS7 Postbaseline Mean (SD)” value (Week 9, Omalizumab-Naïve Population) was 7.01 (7.58), the “HSS7 Postbaseline Mean (SD)” value (Week 9, Omalizumab-Naïve Population with Outlier Removed from Analysis) was 7.01 (7.58) and the “HSS7 % Change difference … (95% CI)” value (Week 10, ITT Population) was −24.54 %. The “HSS7 % Change from baseline LS Mean (SE)” value (Week 10, ITT Population) was −52.53 (6.82) %, the “HSS7 Change difference … (95% CI)” value (Week 10, ITT Population) was −2.72 (−5.32, −0.11) and the “HSS7 Change from baseline LS Mean (SE)” value (Week 10, ITT Population) was −7.32 (0.99). The “HSS7 Postbaseline Mean (SD)” value (Week 10, ITT Population) was 6.77 (7.18), the “HSS7 Postbaseline Mean (SD)” value (Week 10, Omalizumab-Naïve Population) was 7.05 (7.27) and the “HSS7 Postbaseline Mean (SD)” value (Week 10, Omalizumab-Naïve Population with Outlier Removed from Analysis) was 7.05 (7.27). For the same compound, the “HSS7 % Change difference … (95% CI)” value (Week 11, ITT Population) was −22.60 %.
